Molecules are shown by their SMILES.

Broadly, the IC50 is the midpoint of a concentration-inhibition curve. High values mean weaker potency, low ones greater potency.

The test system of one assay is MOLM-14. Put plainly: Antiproliferative activity against human MOLM14 cell spheroids. The assay is classed as functional, cell-based.
In a further assay the test system is MV4-11. Briefly: Antiproliferative activity against human MV411 cell spheroids. It is filed as functional, cell-based.
Assay [1] has as its target T1, Menin/Histone-lysine N-methyltransferase MLL (Homo sapiens, UniProt O00255). Put plainly: Inhibition of menin-MLL1 (unknown origin) protein-protein interaction by fluorescence polarization assay. On the technique in general: Polarisation of emitted light reports the rotation of a fluorescent probe.
Assay [2] addresses T1, Menin/Histone-lysine N-methyltransferase MLL. Briefly: Inhibition of menin-MLL1 (unknown origin) protein-protein interaction by HTRF assay. On the technique in general: Time-resolved FRET reads energy transfer from a long-lived donor to a nearby acceptor.

T1 sequence (O00255 whole entry): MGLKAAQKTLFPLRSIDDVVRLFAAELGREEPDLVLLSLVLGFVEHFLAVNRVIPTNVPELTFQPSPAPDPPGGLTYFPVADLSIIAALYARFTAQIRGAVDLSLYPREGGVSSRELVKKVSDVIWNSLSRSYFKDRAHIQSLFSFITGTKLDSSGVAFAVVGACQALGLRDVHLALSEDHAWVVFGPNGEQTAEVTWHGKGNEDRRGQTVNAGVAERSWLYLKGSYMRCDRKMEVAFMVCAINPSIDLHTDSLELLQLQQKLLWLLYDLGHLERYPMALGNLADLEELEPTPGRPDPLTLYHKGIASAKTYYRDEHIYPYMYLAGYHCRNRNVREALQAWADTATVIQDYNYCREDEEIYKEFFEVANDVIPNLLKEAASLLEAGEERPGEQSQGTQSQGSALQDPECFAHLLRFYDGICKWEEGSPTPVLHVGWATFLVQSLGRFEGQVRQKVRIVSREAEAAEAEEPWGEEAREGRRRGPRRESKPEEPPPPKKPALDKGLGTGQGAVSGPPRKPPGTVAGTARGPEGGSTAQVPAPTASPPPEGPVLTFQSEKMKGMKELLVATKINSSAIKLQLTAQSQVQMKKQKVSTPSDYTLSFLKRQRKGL
T1 sequence (Q03164 1-2718 partner limits assumed): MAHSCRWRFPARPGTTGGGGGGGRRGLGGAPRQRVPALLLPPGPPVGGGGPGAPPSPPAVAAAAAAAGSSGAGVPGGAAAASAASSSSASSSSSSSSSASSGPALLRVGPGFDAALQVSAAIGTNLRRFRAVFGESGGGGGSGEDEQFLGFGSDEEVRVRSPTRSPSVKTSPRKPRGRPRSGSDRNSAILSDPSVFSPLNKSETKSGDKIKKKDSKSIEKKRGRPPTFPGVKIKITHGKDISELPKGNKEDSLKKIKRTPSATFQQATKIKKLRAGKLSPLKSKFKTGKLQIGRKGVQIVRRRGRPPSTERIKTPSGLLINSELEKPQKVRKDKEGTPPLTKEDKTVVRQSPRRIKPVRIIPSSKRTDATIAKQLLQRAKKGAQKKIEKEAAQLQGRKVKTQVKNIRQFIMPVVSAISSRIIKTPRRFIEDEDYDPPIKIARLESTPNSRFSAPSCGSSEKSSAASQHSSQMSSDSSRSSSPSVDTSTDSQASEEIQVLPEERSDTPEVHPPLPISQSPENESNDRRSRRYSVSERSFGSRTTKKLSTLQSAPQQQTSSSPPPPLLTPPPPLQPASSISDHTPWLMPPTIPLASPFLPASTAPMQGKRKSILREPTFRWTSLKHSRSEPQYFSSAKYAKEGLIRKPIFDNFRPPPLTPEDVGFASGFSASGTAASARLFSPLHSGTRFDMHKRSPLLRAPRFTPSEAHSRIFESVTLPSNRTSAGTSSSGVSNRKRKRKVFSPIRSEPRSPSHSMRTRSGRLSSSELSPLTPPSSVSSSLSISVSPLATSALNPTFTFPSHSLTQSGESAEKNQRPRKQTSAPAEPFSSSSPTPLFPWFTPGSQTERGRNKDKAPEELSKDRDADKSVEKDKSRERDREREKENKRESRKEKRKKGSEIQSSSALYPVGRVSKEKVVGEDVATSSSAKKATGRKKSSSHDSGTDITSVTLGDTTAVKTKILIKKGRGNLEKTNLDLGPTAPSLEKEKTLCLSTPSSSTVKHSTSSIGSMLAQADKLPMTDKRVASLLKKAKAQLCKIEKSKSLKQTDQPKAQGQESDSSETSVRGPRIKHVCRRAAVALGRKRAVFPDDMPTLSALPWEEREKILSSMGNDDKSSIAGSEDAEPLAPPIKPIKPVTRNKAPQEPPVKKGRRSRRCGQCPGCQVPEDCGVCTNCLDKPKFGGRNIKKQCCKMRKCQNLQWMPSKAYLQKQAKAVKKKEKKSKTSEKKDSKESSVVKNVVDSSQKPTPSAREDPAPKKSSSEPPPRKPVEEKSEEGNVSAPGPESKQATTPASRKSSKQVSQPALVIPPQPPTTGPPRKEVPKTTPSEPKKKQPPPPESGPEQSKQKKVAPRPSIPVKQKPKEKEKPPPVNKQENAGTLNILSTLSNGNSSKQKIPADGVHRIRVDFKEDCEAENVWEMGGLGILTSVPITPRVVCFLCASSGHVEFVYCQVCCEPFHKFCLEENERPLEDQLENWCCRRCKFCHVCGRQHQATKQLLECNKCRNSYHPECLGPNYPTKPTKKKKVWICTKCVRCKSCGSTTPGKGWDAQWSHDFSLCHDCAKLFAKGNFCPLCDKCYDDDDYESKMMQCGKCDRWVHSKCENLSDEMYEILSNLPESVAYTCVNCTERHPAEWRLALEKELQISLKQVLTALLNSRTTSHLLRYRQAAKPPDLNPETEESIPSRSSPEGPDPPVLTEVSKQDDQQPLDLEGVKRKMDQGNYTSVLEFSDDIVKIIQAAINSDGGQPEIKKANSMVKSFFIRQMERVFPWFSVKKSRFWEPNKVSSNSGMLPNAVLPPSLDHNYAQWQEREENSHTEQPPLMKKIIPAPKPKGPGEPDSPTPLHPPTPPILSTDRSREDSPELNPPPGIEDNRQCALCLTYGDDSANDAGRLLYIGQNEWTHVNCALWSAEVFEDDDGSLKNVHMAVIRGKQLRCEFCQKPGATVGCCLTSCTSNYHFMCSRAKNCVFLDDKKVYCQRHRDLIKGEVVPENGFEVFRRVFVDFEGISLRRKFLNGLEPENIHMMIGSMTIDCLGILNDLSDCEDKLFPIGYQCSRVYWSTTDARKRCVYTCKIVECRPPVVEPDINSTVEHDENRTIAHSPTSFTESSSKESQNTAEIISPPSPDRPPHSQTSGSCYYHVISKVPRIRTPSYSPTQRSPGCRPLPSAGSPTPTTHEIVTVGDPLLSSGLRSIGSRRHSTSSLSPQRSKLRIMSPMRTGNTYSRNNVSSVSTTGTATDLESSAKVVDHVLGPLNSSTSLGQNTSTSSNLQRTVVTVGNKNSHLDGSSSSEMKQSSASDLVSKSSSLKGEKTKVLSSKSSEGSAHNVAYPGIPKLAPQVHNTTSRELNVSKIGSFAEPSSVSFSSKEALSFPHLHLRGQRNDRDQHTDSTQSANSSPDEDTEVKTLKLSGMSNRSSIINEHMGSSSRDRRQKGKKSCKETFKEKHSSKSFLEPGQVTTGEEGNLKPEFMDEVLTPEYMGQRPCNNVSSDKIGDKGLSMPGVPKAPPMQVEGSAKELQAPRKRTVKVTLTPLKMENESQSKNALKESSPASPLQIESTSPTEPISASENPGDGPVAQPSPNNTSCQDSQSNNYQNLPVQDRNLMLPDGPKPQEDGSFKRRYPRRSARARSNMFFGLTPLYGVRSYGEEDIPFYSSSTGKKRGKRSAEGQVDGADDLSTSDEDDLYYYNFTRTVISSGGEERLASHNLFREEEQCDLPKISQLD
T1 sequence (Q03164 2719-3969 partner limits assumed): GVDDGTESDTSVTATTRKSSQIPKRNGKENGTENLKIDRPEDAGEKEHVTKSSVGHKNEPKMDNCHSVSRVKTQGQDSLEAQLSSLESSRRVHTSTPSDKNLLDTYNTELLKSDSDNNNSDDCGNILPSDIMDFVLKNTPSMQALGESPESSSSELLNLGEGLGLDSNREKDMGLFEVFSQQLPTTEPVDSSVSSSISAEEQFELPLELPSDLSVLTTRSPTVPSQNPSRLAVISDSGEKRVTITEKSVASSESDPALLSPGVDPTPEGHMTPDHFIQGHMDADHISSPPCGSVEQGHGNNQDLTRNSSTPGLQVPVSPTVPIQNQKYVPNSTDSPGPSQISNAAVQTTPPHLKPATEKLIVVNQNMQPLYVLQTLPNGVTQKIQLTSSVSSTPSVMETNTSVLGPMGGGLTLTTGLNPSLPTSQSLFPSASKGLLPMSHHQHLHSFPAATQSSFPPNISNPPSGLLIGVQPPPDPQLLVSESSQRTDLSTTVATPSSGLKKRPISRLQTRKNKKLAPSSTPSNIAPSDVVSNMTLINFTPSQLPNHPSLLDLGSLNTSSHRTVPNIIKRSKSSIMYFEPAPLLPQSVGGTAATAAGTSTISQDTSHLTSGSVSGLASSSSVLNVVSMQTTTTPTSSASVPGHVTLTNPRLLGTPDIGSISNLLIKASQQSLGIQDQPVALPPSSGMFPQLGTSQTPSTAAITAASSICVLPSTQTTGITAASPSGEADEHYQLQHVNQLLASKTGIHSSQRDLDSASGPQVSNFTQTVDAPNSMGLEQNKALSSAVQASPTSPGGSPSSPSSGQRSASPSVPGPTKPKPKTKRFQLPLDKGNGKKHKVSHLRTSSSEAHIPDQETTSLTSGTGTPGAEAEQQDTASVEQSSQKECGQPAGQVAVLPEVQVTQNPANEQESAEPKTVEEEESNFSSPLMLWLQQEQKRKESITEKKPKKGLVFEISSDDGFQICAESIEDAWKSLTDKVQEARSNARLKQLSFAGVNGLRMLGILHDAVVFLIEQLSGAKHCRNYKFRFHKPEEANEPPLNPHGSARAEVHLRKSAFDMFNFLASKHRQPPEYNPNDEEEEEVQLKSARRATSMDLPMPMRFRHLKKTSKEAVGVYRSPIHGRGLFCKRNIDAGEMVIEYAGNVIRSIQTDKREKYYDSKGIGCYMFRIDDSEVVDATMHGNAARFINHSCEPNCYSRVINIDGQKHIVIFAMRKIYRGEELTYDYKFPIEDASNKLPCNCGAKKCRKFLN

As to `FC(F)(F)Cc1cc2c(N3CCC4(CN(Cc5ccccc5)C4)C3)ncnc2s1`, the IC50 in the assay with MOLM-14 amounted to 4.6 µM; in the assay with MV4-11, 3.7 µM; in assay [1], 0.056 µM; in assay [2], 0.144 µM.
As for `CC(C)[C@H](C1CNC1)N1CC2(CCN(c3ncnc4sc(CC(F)(F)F)cc34)C2)C1`, the 50% inhibitory concentration (IC50) came to 0.86 µM in the assay with MOLM-14, 0.08 µM in the assay with MV4-11, 0.021 µM in assay [1] and 0.008 µM in assay [2].
For the compound `Cn1cc2c(n1)CCCC2N1CC2(CCN(c3ncnc4sc(CC(F)(F)F)cc34)C2)C1` (centres undefined), the concentration for half-maximal inhibition (IC50) with MOLM-14 was over 15 µM; in the assay on MV4-11 it was 2.1 µM; in assay [1], 0.12 µM; in assay [2] it was 0.385 µM.
As for `CC(C)[C@@H](C1CNC1)N1CC2(CCN(c3ncnc4sc(CC(F)(F)F)cc34)C2)C1`, the IC50 in the assay on MOLM-14 was 10.3 µM; in the assay on MV4-11 it was 3.4 µM; in assay [1], 0.11 µM; in assay [2] it was 0.19 µM.
The corresponding values for `FC(F)(F)Cc1cc2c(N3CCCC4(CCN(Cc5ccccc5)C4)C3)ncnc2s1` (centres undefined) are 7.7 µM, 3.9 µM, 0.14 µM and 0.227 µM.
Consider `O=C([C@@H]1CC2(CC2)CN1)N1CC2(CCN(c3ncnc4sc(CC(F)(F)F)cc34)C2)C1`, for which the IC50 was found to be 11.3 µM in the assay with MOLM-14, 2.6 µM in the assay with MV4-11, 0.092 µM in assay [1] and 0.102 µM in assay [2].

For the origin of these results see ChEMBL document CHEMBL4196228, “Potential Treatment of Acute Leukemia with Inhibitors of Menin/MLL Interaction” (ACS Med Chem Lett, 2018).
